Data on 1 compound can be found in ChEMBL document CHEMBL5543122, “Discovery of HC-7366: An Orally Bioavailable and Efficacious GCN2 Kinase Activator” (J Med Chem, 2024).

Data set [1] can be described thus: Antitumor activity against human MOLM16 cells xenografted in BALB/c nude mouse assessed as tumor growth inhibition at 1 mg/kg administered twice a day for 17 days. It counts as functional, MOLM-16. The following applies: MOLM16, 408 h, time 17 day, read-out: TGI. Background: In xenograft studies the graft and the host belong to different species.
Data set [2] can be described thus: Unbound Cmax in BALB/c mouse at 3 mg/kg, po and 1 mg/kg, iv measured upto 24 hrs. It is filed as ADME, organism-based. Conditions: in vivo.
Data set [3] is described as follows: Unbound Cmax in Sprague-Dawley rat at 3 mg/kg, po measured upto 24 hrs. The following applies: in vivo. It counts as ADME, organism-based.
A short description of data set [4]: Oral bioavailability in BALB/c mouse at 3 mg/kg measured upto 24 hrs. It is filed as ADME, organism-based. Conditions: in vivo.
A short description of data set [5]: Oral bioavailability in Sprague-Dawley rat at 3 mg/kg measured upto 24 hrs. It is filed as ADME, organism-based. The following applies: in vivo, po, 3 mg/kg, 24 h.
A short description of data set [6]: Unbound fraction in Sprague-Dawley rat plasma at 1 mg/kg, iv measured upto 24 hrs. It is filed as ADME, organism-based.
Data set [7] in a line: Volume of distribution at steady state in Sprague-Dawley rat at 1 mg/kg, iv measured upto 24 hrs. It is filed as ADME, organism-based. The following applies: in vivo, read-out: Vdss.
The subject of data set [8] is HT-1080. As to the kind of experiment: Antitumor activity against human HT-1080 cells xenografted in BALB/c nude mouse assessed as mean tumor growth inhibition at 0.3 mg/kg administered twice a day for 14 days. It is filed as functional. Conditions: HT-1080, 336 h, time 14 day, read-out: TGI.
The nature of data set [9]: Unbound clearance in Sprague-Dawley rat plasma at 1 mg/kg, iv measured upto 24 hrs. It is filed as ADME, organism-based. Conditions: in vivo.
Data set [10] can be described thus: Unbound clearance in BALB/c mouse plasma at 3 mg/kg, po and 1 mg/kg, iv measured upto 24 hrs. It is filed as ADME, organism-based. The following applies: in vivo.
In data set [11] the target is T1, Dual specificity mitogen-activated protein kinase kinase 5 (Homo sapiens, UniProt Q13163).
T1 sequence (Q13163 whole entry): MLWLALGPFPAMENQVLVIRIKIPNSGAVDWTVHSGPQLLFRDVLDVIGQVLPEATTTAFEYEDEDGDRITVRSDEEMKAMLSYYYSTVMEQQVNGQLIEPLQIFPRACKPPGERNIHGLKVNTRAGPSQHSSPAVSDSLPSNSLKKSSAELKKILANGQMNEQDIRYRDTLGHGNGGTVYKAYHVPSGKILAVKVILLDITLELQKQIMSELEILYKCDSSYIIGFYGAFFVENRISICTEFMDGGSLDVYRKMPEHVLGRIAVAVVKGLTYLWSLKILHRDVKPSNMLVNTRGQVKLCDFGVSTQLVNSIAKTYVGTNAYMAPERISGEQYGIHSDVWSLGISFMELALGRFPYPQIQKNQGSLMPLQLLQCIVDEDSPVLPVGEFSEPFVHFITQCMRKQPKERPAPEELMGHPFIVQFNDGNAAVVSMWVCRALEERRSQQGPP
Briefly: Inhibition of MAP2K5 in human MOLM16 cells. It is filed as cell-based.

The nature of data set [12]: physchem. Conditions: SGF.
Description: Thermodynamic solubility in SGF at 1 mg incubated for 24 hrs by UPLC-MS/MS analysis
In the next data set the target is Cytochrome P450 3A4 (Homo sapiens, UniProt P08684). As to the kind of experiment: Inhibition of CYP3A4 in human liver microsomes using midazolam substrate incubated for 5 mins in presence of NADPH by UPLC-MS/MS analysis.
Data set [13] addresses Phosphatidylinositol 4-phosphate 3-kinase C2 domain-containing subunit beta (Homo sapiens, UniProt O00750). As to the kind of experiment: Inhibition of PIK3C2B in human MOLM16 cells. It is filed as cell-based.
Data set [14] can be described thus: physchem. The following applies: FaSSIF.
Description: Thermodynamic solubility in FaSSIF at 1 mg incubated for 24 hrs by UPLC-MS/MS analysis
A short description of data set [15]: Unbound AUC in Sprague-Dawley rat at 3 mg/kg, po measured upto 24 hrs. Conditions: in vivo. It is filed as ADME, organism-based.
The nature of data set [16]: Antitumor activity against human MOLM16 cells xenografted in BALB/c nude mouse assessed as tumor growth inhibition at 0.3 mg/kg administered twice a day for 17 days. Conditions: MOLM16, 408 h, time 17 day, read-out: TGI. It is filed as functional, MOLM-16.
For data set [17], the system named is HT-1080. As to the kind of experiment: Antitumor activity against human HT-1080 cells xenografted in BALB/c nude mouse assessed as mean tumor growth inhibition at 3 mg/kg administered twice a day for 14 days. It counts as functional. Conditions: HT-1080, 336 h, time 14 day, read-out: TGI.
Data set [18] deals with HT-1080. As to the kind of experiment: Antitumor activity against human HT-1080 cells xenografted in BALB/c nude mouse assessed as mean tumor growth inhibition at 1 mg/kg administered twice a day for 14 days. It counts as functional. Conditions: HT-1080, 336 h, time 14 day, read-out: TGI.
Data set [19] can be described thus: Apparent permeability across apical to basolateral in human Caco-2 cells at 5 uM measured after 120 mins by UPLC-MS/MS analysis. In general terms: Caco-2 cells form a polarised layer with tight junctions and transporters.
The nature of data set [20]: Cmax in Sprague-Dawley rat at 3 mg/kg, po measured upto 24 hrs. It counts as ADME, organism-based. Conditions: in vivo.
Data set [21] in a line: Unbound fraction in BALB/c mouse plasma at 3 mg/kg, po and 1 mg/kg, iv measured upto 24 hrs. It is filed as ADME, organism-based.
A short description of data set [22]: Antitumor activity against human MOLM16 cells xenografted in BALB/c nude mouse assessed as tumor growth inhibition at 3 mg/kg administered twice a day for 17 days. It is filed as functional, MOLM-16. Conditions: MOLM16, 408 h, time 17 day, read-out: TGI.

The structures appear in SMILES notation. Converted amounts (≈) assume the structure as drawn.

Chain of Phosphatidylinositol 4-phosphate 3-kinase C2 domain-containing subunit beta (O00750 whole entry, the tested form may be a part): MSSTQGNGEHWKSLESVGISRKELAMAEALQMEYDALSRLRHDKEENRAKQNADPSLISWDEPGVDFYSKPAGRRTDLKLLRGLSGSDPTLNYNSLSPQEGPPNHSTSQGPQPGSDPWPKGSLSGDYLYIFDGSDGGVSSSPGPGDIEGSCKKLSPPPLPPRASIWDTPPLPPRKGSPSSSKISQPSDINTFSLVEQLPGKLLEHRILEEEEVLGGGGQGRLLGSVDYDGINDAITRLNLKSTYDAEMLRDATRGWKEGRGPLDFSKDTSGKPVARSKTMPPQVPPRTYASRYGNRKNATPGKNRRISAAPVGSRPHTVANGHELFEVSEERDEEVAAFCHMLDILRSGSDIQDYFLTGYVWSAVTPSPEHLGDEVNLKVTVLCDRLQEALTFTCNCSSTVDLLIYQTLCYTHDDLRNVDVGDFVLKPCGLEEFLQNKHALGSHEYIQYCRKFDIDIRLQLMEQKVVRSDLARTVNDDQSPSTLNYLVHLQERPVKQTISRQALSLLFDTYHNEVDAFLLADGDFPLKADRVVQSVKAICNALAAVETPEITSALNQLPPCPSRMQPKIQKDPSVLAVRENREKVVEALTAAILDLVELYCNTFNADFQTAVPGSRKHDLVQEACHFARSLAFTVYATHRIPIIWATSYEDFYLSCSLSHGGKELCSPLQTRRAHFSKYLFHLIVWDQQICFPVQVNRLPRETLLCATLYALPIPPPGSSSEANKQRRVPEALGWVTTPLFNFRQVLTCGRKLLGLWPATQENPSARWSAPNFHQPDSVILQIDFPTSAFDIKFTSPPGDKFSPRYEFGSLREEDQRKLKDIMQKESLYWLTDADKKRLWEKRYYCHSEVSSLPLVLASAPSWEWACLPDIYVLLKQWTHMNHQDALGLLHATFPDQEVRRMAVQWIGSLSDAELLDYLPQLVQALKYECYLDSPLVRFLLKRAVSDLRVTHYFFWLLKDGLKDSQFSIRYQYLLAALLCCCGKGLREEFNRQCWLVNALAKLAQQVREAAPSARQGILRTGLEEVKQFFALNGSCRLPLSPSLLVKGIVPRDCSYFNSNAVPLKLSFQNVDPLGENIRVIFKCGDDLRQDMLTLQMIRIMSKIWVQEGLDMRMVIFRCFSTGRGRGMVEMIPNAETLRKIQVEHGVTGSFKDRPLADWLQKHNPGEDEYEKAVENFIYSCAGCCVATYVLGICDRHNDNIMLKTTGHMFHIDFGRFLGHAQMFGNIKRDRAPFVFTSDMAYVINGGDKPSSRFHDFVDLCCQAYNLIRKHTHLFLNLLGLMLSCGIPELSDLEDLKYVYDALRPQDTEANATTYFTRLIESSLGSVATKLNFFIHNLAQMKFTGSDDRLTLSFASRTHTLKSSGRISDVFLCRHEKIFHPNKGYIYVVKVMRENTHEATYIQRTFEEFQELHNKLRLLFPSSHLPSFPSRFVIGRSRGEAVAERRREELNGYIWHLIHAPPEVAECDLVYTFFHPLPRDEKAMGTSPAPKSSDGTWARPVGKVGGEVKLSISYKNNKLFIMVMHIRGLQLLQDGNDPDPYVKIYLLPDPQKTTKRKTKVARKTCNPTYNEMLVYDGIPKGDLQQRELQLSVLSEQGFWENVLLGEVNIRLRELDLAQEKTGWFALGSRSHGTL
Chain of Cytochrome P450 3A4 (P08684 whole entry, the tested form may be a part): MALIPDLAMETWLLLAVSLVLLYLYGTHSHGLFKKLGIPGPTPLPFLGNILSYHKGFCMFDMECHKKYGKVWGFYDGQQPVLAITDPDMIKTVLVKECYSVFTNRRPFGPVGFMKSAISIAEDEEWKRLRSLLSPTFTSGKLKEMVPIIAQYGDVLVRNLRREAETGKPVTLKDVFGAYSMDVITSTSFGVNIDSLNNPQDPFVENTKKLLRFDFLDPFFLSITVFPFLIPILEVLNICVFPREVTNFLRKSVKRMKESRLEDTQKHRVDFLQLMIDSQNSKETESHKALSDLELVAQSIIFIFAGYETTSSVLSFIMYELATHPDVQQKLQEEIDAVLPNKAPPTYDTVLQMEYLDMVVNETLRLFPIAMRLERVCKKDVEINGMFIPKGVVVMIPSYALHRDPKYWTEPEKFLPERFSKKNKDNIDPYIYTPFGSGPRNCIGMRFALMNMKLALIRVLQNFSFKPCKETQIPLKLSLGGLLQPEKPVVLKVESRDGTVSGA

Take `CNC(=O)c1ncn2cc(-c3c(F)ccc(NS(=O)(=O)c4cc(Cl)cnc4OC)c3F)ncc12`: the results for the inhibition in vivo at 1 mg/kg (in [1]; in the data set with HT-1080 [18]) were 97% and 80%, respectively. In addition, the fCmax in [2] is 52 nM; in data set [3], 7.1 nM. For the same compound, the values for the F in [4] and in data set [5] were 66% and 29%, respectively. The unbound share (fraction unbound) (in general, the share of the substance not bound to proteins or other matrix) at 24 h in data set [6] came to 0.001; in [21] it was 0.002. In data set [7], the Vd is 0.093 L/kg. Also, the inhibition in vivo at 0.3 mg/kg worked out at 18% in the data set on HT-1080 [8] and 66% in data set [16]. For the same compound, the CL free in [9] worked out at 290 mL/min/kg; in [10], 70 mL/min/kg. Moreover, the IC50 – broadly, the midpoint of a concentration-inhibition curve – came out at 2.9 µM in data set [11], 33 µM on Cytochrome P450 3A4 and 3.4 µM in [13]. Further, the solubility (thermodynamic) – broadly, solubility found after equilibrating the solid with the medium – at 24 h in the data set “physchem [12]” worked out at 0.89 µM (≈ 0.453 µg/mL); in the data set “physchem [14]”, 1.8 µM (≈ 0.916 µg/mL). In [15], this compound showed a fAUC of 0.048 µM·h. Further, the inhibition in vivo at 3 mg/kg with HT-1080 [17] was 84%; in data set [22], 98%. In addition, in [19], the Papp A→B (in general, how fast a substance crosses the layer from the apical side) at 2 h, 5 µM stood at 9.7 ×10⁻⁶ cm/s. The concentration in data set [20] peaked (Cmax) at 10.1 µM.
